Data on 23 molecules can be found in ChEMBL document CHEMBL2380195 (J Med Chem, 2013).

For data set [1], the target named is T1, Prostaglandin G/H synthase 1 (Homo sapiens, UniProt P23219). Nature of the data set: Inhibition of COX-1 in human whole blood assessed as inhibition of serum TXB2 level after 1 hr by radioimmunoassay.
In data set [2] the target is T2, Prostaglandin G/H synthase 2 (Homo sapiens, UniProt P35354).
T2 sequence (P35354 whole entry): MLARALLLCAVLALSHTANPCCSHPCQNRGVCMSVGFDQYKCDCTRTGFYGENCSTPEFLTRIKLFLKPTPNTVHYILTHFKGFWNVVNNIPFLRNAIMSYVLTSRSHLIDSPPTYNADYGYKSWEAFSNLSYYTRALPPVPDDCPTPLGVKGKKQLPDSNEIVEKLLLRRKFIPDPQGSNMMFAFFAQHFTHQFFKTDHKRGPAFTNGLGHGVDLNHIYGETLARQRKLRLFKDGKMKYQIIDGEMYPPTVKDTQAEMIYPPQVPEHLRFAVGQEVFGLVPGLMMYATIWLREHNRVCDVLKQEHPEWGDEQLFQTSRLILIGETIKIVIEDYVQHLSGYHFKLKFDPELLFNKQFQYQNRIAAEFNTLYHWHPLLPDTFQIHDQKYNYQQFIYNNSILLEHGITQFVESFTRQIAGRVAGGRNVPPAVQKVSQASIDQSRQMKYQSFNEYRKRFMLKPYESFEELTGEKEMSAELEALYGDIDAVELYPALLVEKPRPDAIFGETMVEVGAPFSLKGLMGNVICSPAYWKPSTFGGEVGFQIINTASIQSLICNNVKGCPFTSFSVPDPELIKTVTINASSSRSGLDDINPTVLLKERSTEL
Nature of the data set: Inhibition of COX-2 in human whole blood assessed as inhibition of LPS-induced plasma PGE2 level by radioimmunoassay.

For a further data set, the system named is Homo sapiens. The data set can be described thus: Antithrombotic activity in human assessed as reduction of 11-dehydro-TXB2 level in urine at 100 mg/day administered 6 days measured for 24 hrs post last dose relative to vehicle-treated control. Type of data set: functional. On the set-up: scale not given: the % may be the effect or the level left.
The target in data set [3] is T1, Prostaglandin G/H synthase 1. The data set can be described thus: Irreversible inhibition of COX-1 in human THP1 cells assessed as inhibition of arachidonic acid-induced TXB2 formation at 100 uM incubated for 30 mins followed by compound washout measured 30 mins post arachidonic acid challenge by radioimmunoassay. Type of data set: cell-based. As to conditions: THP-1.

The species entered for a further data set is Mus musculus. The data set can be described thus: Antithrombotic activity in LDLR-/- C57BL/6 mouse assessed as reduction of 11-dehydro-TXB2 level in urine at 30 mg/L after 18 weeks relative to vehicle-treated control. It counts as functional. On the set-up: scale not given: the % may be the effect or the level left.
Data set [4] concerns the target T1, Prostaglandin G/H synthase 1. The data set can be described thus: Inhibition of COX-1 in human washed platelet assessed as inhibition of 10 uM arachidonic acid-induced TXB2 formation at 0.01 to 100 uM incubated for 25 mins prior to arachidonic acid challenge measured after 30 mins by radioimmunoassay.
The target is the same in data set [5]. The settings on record: at 0.01 to 100 µM.
For data set [6] the target is unchanged. Nature of the data set: Inhibition of COX-1 in human THP1 cells assessed as inhibition of arachidonic acid-induced TXB2 formation at 100 uM incubated for 30 mins prior to arachidonic acid challenge measured after 30 mins by radioimmunoassay relative to vehicle-treated control. Type of data set: cell-based. As to conditions: THP-1.
Data set [7] addresses Prostaglandin G/H synthase 2 (Homo sapiens) (UniProt P35354). Nature of the data set: Inhibition of COX-2 in human MDA-MB-231 cells assessed as inhibition of arachidonic acid-induced PGE2 formation at 100 uM incubated for 30 mins prior to arachidonic acid challenge measured after 30 mins by radioimmunoassay relative to vehicle-treated control.
Data set [8] addresses T1, Prostaglandin G/H synthase 1. Nature of the data set: Inhibition of COX-1 (unknown origin) in platelet rich plasma assessed as inhibition of arachidonic acid-induced TXB2 formation incubated for 5 mins prior to arachidonic acid challenge measured for 5 mins by aggregometric analysis.
Data set [9] is described as follows: Binding affinity to human alpha1-acid glycoprotein by HPLC analysis relative to control. Type of data set: ADME. As to conditions: pooled result: one value given for 2 cell lines, strains, targets or settings.
Data set [10] concerns the target T1, Prostaglandin G/H synthase 1. Nature of the data set: Inhibition of COX-1 (unknown origin) in platelet rich plasma assessed as inhibition of collagen-induced platelet aggregation at 10 uM incubated for 5 mins prior to collagen challenge measured for 5 mins by aggregometric analysis relative to vehicle-treated control.
Data set [11] shares this target. Nature of the data set: Inhibition of COX-1 (unknown origin) in platelet rich plasma assessed as inhibition of arachidonic acid-induced platelet aggregation at 10 uM incubated for 5 mins prior to arachidonic acid challenge measured for 5 mins by aggregometric analysis relative to vehicle-treated control.
Data set [12] has the same target. Nature of the data set: Inhibition of COX-1 (unknown origin) in platelet rich plasma assessed as inhibition of collagen-induced TXB2 formation incubated for 5 mins prior to collagen challenge measured for 5 mins by aggregometric analysis.
Data set [13] concerns the target COX-1/COX-2 (Homo sapiens) (UniProt P35354+P23219). The data set can be described thus: Selectivity ratio of IC50 for COX-2 in human whole blood to COX-1 in human whole blood. It counts as tissue-based.
Data set [14] has as its target Prostaglandin G/H synthase 2 (Homo sapiens) (UniProt P35354). The data set can be described thus: Irreversible inhibition of COX-2 in human MDA-MB-231 cells assessed as inhibition of arachidonic acid-induced PGE2 formation at 100 uM incubated for 30 mins followed by compound washout measured 30 mins post arachidonic acid challenge by radioimmunoassay.
The target in data set [15] is T1, Prostaglandin G/H synthase 1. The data set can be described thus: Inhibition of COX-1 (unknown origin) in platelet rich plasma assessed as inhibition of arachidonic acid-induced platelet aggregation up to 3 uM incubated for 5 mins prior to arachidonic acid challenge measured for 5 mins by aggregometric analysis.
The target is the same in data set [16]. Nature of the data set: Inhibition of COX-1 (unknown origin) in platelet rich plasma assessed as inhibition of collagen-induced platelet aggregation incubated for 5 mins prior to collagen challenge measured for 5 mins by aggregometric analysis.
Data set [17] shares this target. The data set can be described thus: Inhibition of COX-1 (unknown origin) in platelet rich plasma assessed as inhibition of collagen-induced platelet aggregation up to 3 uM incubated for 5 mins prior to collagen challenge measured for 5 mins by aggregometric analysis.
In data set [18] the target is Prostaglandin G/H synthase 2 (Homo sapiens) (UniProt P35354). Nature of the data set: Reversible inhibition of COX-2 in human MDA-MB-231 cells assessed as inhibition of arachidonic acid-induced PGE2 formation at 100 uM incubated for 30 mins followed by compound washout measured 30 mins post arachidonic acid challenge by radioimmunoassay.
Data set [19] addresses T1, Prostaglandin G/H synthase 1. The data set can be described thus: Inhibition of COX-1 (unknown origin) in platelet rich plasma assessed as inhibition of arachidonic acid-induced platelet aggregation at 30 uM incubated for 5 mins prior to arachidonic acid challenge measured for 5 mins by aggregometric analysis relative to vehicle-treated control.
Data set [20] deals with T3, Prostaglandin G/H synthase 2 (Homo sapiens) (UniProt P35354).
T3 sequence (whole entry): T2 sequence (P35354 whole entry)
Nature of the data set: Inhibition of COX-2 in human whole blood assessed as inhibition of LPS-induced plasma PGE2 level at 1000 uM by radioimmunoassay relative to control.

Data set [21] addresses T1, Prostaglandin G/H synthase 1. The data set can be described thus: Inhibition of COX-1 in human washed platelet assessed as rightward shift in 10 uM arachidonic acid-induced TXB2 formation at 0.01 to 100 uM incubated for 25 mins prior to arachidonic acid challenge measured after 30 mins by radioimmunoassay.
Data set [22] has the same target. Nature of the data set: Inhibition of COX-1 (unknown origin) in platelet rich plasma assessed as inhibition of collagen-induced platelet aggregation at 30 uM incubated for 5 mins prior to collagen challenge measured for 5 mins by aggregometric analysis relative to vehicle-treated control.
The target is the same in data set [23]. Nature of the data set: Reversible inhibition of COX-1 in human THP1 cells assessed as inhibition of arachidonic acid-induced TXB2 formation at 100 uM incubated for 30 mins followed by compound washout measured 30 mins post arachidonic acid challenge by radioimmunoassay. Type of data set: cell-based. The settings on record: THP-1.

Calls of active or inactive are those of the source. The calls are words filed in the database; no cut-off is given here.

T1 sequence (P23219 whole entry): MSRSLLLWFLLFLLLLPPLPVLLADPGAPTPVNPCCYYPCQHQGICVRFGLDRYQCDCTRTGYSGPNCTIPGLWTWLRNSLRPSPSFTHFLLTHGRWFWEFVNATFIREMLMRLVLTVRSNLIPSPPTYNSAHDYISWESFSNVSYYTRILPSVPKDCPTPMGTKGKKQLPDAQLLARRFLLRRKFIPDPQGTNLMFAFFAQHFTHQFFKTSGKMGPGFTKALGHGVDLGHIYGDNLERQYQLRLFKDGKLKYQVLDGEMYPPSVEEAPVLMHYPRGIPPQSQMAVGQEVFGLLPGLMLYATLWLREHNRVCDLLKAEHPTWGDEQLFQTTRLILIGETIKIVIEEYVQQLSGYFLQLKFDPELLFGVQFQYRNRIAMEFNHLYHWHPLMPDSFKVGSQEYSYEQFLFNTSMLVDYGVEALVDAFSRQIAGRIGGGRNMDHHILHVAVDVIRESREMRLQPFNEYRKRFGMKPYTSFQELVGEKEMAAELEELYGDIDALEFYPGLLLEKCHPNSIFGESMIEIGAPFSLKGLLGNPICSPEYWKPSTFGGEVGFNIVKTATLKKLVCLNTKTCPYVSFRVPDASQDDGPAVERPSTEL
COX-1/COX-2 (Homo sapiens), sequence (P23219 whole entry, looked up, one chain of several): as the sequence (P23219 whole entry) above

On to `O=C(OCCCO[N+](=O)[O-])c1onc(-c2ccc(Cl)o2)c1-c1ccccc1`, for which the IC50 in data set [1] and in [2] was more than 100 µM in each case.

As for `CC(=O)Oc1ccccc1C(=O)O` [ASPIRIN], the Activity in the data set on Homo sapiens and in the data set listed under Mus musculus was 70% each time. Further, the inhibition result in data set [3], in data set [4] and in data set [5] was “Active” each time. In addition, in [6], the inhibition was more than 90%.

On to `Cc1ccc(-c2noc(C)c2-c2ccccc2)o1`, for which the inhibition was 70% in data set [7]; “Dose-dependent effect” in data set [8]; 66% in data set [10]; 97.8% in data set [11]; “Dose-dependent effect” in data set [12]; more than 90% in data set [6]. Besides, the inhibition result in data set [16] was “Dose-dependent effect”. The IC50 was 4.3 µM in [8], 0.32 µM in [1], 68.2 µM in [2] and 7.4 µM in [12]. The inhibition entry in [3], in [4], in data set [14] and in data set [5] was “Active” throughout. The Activity in data set [9] came to 94.7%. The Ratio IC50 in data set [13] amounted to 213. The inhibition entry in data set [15] and in [17] was “inactive” throughout.

In the case of `Cc1onc(-c2ccc(Cl)o2)c1-c1ccc(F)cc1`, the IC50 in data set [2] was found to be 17.2 µM. In addition, in data set [13], the Ratio IC50 came to 9.05.

Regarding `OCc1onc(-c2ccc(Cl)o2)c1-c1ccccc1`, the IC50 in [2] is more than 100 µM. In addition, in data set [13], the Ratio IC50 is more than 23.8.

Take `O=C(O)c1onc(-c2ccc(Cl)o2)c1-c1ccccc1`: the IC50 in data set [1] and in data set [2] was more than 100 µM each time.

For the molecule `Cc1onc(-c2ccc(Br)o2)c1-c1ccccc1`, the inhibition is 70% in data set [7]; “Dose-dependent effect” in data set [8]; 78% in data set [10]; 96.3% in data set [11]; “Dose-dependent effect” in data set [12]; more than 90% in data set [6]. Further, the inhibition entry in [16] is “Dose-dependent effect”. The IC50 in [8] came to 3.4 µM; in [1], 0.33 µM; in data set [2], 34 µM; in data set [12], 7.6 µM. The inhibition result in data set [3], in data set [18], in data set [4] and in data set [5] was “Active” in each case. The Activity in [9] was determined as 96.1%. The Ratio IC50 in data set [13] was 103. The inhibition result in data set [15] and in data set [17] was “inactive” in each case.

As to `CC(=O)/C(=C(\N)c1ccco1)c1ccccc1`, the IC50 was 37 µM in data set [1] and more than 100 µM in data set [2]. In addition, the Ratio IC50 in data set [13] was more than 2.7.

With `Cc1onc(C2CCCO2)c1-c1ccccc1` (stereo unspecified), the IC50 in [1] and in [2] was more than 100 µM in each case.

As for `Cc1onc(-c2ccc(Cl)o2)c1-c1ccccc1`, the IC50 in data set [8] is 12 µM; in data set [12], 18.6 µM. Also, the Activity in [9] was determined as 95.7%.

Turning to `CC(=O)OCc1onc(-c2ccc(Cl)o2)c1-c1ccccc1`, the inhibition result in [7] was “inactive”. The IC50 is 20 µM in [8], 5 µM in data set [1] and 23 µM in [12]. Besides, the inhibition in [19] is 97%; in data set [20], 40%; in [22], 62%; in [6], more than 90%. Further, the inhibition result in data set [21], in data set [23] and in [5] was “Active” in each case. Further, in data set [13], the Ratio IC50 is more than 20.

As for `Cc1onc(-c2ccco2)c1-c1ccccc1`, the IC50 came out at 2.2 µM in data set [1] and 20.4 µM in data set [2]. The Ratio IC50 in data set [13] is 9.29.

As for `O=C(O)c1c(-c2ccccc2)noc1-c1ccccc1`, the IC50 in [1] and in [2] was more than 100 µM throughout.

As for `Cc1onc(-c2ccc(Cl)o2)c1-c1ccccc1F`, in [13], the Ratio IC50 was more than 52.6.

Turning to `CC(=O)/C(=C(\N)c1ccc(Cl)o1)c1ccccc1`, the IC50 in data set [1] and in data set [2] was more than 100 µM each time.

As for `COC(=O)c1onc(-c2ccc(Cl)o2)c1-c1ccccc1`, the IC50 is 19.2 µM in data set [1] and more than 100 µM in data set [2]. In addition, in data set [13], the Ratio IC50 was more than 5.21.

On to `CC(C)Cc1ccc(C(C)C(=O)O)cc1` (stereo unspecified), for which, in data set [23], the inhibition result is “Active”. In data set [6], the inhibition is more than 90%.

As for `COC(=O)c1c(-c2ccccc2)noc1-c1ccccc1`, the IC50 in data set [1] was 17.3 µM; in data set [2] it was more than 100 µM. Besides, in [13], the Ratio IC50 was more than 5.79.

Take `COC(=O)c1c(-c2ccc(Cl)o2)noc1-c1ccccc1`: the IC50 in [1] was 17.4 µM; in data set [2], more than 100 µM. Moreover, the Ratio IC50 in data set [13] is more than 5.75.

In the case of `Cc1onc(-c2ccccc2Cl)c1-c1ccccc1`, the concentration for half-maximal inhibition (IC50) was 0.27 µM in [1] and 1.1 µM in data set [2]. Further, in data set [13], the Ratio IC50 worked out at 4.07.

Turning to `Cc1onc(-c2cccc(Cl)c2)c1-c1ccccc1`, the IC50 in [1] came out at 1.3 µM; in data set [2], 0.27 µM. Besides, in data set [13], the Ratio IC50 was found to be 0.21.

Regarding `O=C(O)c1c(-c2ccc(Cl)o2)noc1-c1ccccc1`, the IC50 in [1] and in [2] was more than 100 µM throughout.

`O=C(OCCCN1CCOCC1)c1onc(-c2ccc(Cl)o2)c1-c1ccccc1`: the IC50 in [1] and in [2] was more than 100 µM each time.

The term IC50 denotes the concentration needed to halve the response being measured. One may read the inhibition as the relative decrease from the control value, in per cent.
